One experiment addresses yeast α-glucosidase (Saccharomyces cerevisiae, UniProt P53341). The experiment can be described thus: In vitro α-glucosidase inhibition assay (PNPG substrate). Type of experiment: biochemical. Also noted: inhibition: dose or concentration left out as unconfirmed. The note with it: for IC50: dose-response 0–25 µg/mL. The procedure: α-Glucosidase inhibition was tested according to previously reported methods with some modifications. […] Fifty microliters of yeast α-glucosidase enzyme solution (0.5 U/mL in phosphate buffer) was added to the wells. The plate was incubated at 37 °C for 15 min. Next, 25 µL of 2.5 mM PNPG (4-nitrophenyl α-D-glucopyranoside) substrate solution (in phosphate buffer) was added. The microplate was incubated at 37 °C for another 15 min. The absorbance was then measured using a microplate reader at 405 nm. The percentage inhibition was calculated using the formula: % inhibition = ΔAbscontrol−ΔAbssample/ΔAbscontrol × 100
All measurements were performed in triplicates and the values. The IC50 values for selected CSEs were calculated by plotting a dose-response curve for a range of concentrations of the CSEs (0–25 µg/mL) for the selected CSEs (data not shown) and regression analysis was done using Graphpad Prism software using the in-built function.

The target in experiment [1] is T1, porcine pancreatic α-amylase (Sus scrofa, UniProt P00690).
T1 sequence (P00690 16-511): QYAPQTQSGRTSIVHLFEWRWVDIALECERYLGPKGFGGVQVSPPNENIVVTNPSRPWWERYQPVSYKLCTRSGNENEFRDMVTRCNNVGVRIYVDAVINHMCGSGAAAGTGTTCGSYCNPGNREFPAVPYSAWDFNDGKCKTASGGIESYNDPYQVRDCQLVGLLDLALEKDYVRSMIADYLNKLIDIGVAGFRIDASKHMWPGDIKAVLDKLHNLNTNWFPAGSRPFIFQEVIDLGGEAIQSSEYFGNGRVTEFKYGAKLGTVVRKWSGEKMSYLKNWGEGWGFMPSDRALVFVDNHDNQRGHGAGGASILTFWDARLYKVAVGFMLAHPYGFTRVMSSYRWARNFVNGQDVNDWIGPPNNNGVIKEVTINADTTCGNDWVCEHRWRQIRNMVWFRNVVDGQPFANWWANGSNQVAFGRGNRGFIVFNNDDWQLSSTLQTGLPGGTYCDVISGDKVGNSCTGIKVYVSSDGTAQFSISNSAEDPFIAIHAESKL
Kind of experiment: In vitro α-amylase inhibition assay (starch/DNSA). Type of experiment: biochemical. Also noted: inhibition: dose or concentration left out as unconfirmed. Conditions: for IC50: dose-response 0–25 µg/mL. The procedure:
α-amylase inhibition was tested using previously reported methods […] The tubes were then incubated at 37 °C for 10 min. Next, 450 µL of 0.5% starch solution was added and the tubes were incubated for a further 20 min at 37 °C. Finally, 500 µL of Dinitro Salicylic Acid (DNSA) reagent was added and the tubes were placed in a boiling water bath for 15 min. The absorbance of the tubes was recorded at 540 nm and the % inhibition calculated using the same formula as for α-glucosidase, % inhibition = ΔAbscontrol−ΔAbssample/ΔAbscontrol × 100
All measurements were performed in triplicates and the values.

Another experiment deals with STZ-treated mice. Also noted: method as in earlier work. Conditions: STZ-treated mice compared to control (starch only) mice; cited from earlier work.
[2] abbreviates: 25 μg/mL, mean ± SD, n = 3, less than 5% inhibition = No Significant Activity.

Chain of yeast α-glucosidase (P53341 whole entry): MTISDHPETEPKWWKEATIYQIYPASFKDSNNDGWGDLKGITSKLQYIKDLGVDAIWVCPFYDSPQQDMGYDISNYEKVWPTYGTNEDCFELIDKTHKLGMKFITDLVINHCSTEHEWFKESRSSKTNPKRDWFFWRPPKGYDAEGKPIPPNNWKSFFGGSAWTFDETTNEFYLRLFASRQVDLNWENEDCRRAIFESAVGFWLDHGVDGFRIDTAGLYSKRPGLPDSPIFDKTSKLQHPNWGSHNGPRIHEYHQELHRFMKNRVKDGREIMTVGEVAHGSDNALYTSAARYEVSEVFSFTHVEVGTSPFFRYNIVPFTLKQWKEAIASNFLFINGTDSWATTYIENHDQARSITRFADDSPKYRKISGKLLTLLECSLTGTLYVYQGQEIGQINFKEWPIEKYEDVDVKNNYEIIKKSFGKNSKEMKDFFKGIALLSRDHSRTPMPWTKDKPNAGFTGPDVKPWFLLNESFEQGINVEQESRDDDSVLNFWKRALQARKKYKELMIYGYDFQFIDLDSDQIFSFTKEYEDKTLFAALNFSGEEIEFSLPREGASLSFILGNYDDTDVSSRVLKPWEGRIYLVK

`CC1(C)OC[C@@]2(O[C@H]3O[C@@H]4COC(C)(C)O[C@H]4[C@H](O)[C@H]3O1)O[C@H](COC(=O)/C=C/c1ccccc1)[C@@H](O)[C@@H]2O` [CSE 2]: on yeast α-glucosidase (setting [2]), the “% α-glucosidase inhibition” value is listed as “did not show significant inhibition activity”. Also, in experiment [1] (setting [2]), the “% α-amylase inhibition” value is on record as “did not show significant inhibition activity”.
The inhibition is how much of the control response was suppressed. On to `CC1(C)OC[C@@]2(O[C@H]3O[C@@H]4COC(C)(C)O[C@H]4[C@H](O)[C@H]3O1)O[C@H](COC(=O)/C=C/c1ccccc1)[C@@H](O)[C@@H]2OC(=O)/C=C/c1ccccc1` [CSE 3], for which the figures for the inhibition (at yeast α-glucosidase; in experiment [1]) were 35 ± 5% and 9 ± 5%, respectively.
For `CC1(C)OC[C@@]2(O[C@H]3O[C@@H]4COC(C)(C)O[C@H]4[C@H](O)[C@H]3O1)O[C@H](COC(=O)/C=C/c1ccccc1)[C@@H](OC(=O)/C=C/c1ccccc1)[C@@H]2OC(=O)/C=C/c1ccccc1` [CSE 4] the same measures were 32 ± 3% and 8 ± 4%.
One may read the IC50 as the point on the concentration scale where inhibition reaches its midpoint. Regarding `CC1(C)OCC2OC3OC4(COC(C)(C)OC3C(OC(=O)C=Cc3ccccc3)C2O1)OC(COC(=O)C=Cc1ccccc1)C(OC(=O)C=Cc1ccccc1)C4OC(=O)C=Cc1ccccc1` (stereo not shown) [CSE 5], at yeast α-glucosidase, the inhibition turned out to be 77 ± 5% and the “α-glucosidase IC50, fold lower than acarbose” value is recorded as “over 36 fold”. At yeast α-glucosidase (mean ± SD, n = 3), half-maximal inhibition (IC50) required 9 ± 3 µM. In experiment [1], the inhibition worked out at 98 ± 2% and the “α-amylase IC50, fold less than acarbose” value is “five-fold less”. In experiment [1] (mean ± SD, n = 3), this molecule gave an IC50 of 1 ± 0.2 µM.
In the case of `CC(=O)O[C@@H]1[C@H]2OC(C)(C)OC[C@@]3(O[C@H]2O[C@@H]2COC(C)(C)O[C@@H]12)O[C@H](COC(=O)/C=C/c1ccccc1)[C@@H](OC(C)=O)[C@@H]3OC(=O)/C=C/c1ccccc1` [CSE 6], the inhibition on yeast α-glucosidase was 46 ± 3%; in experiment [1], 14 ± 4%.
As to `CC(=O)O[C@@H]1[C@H]2OC(C)(C)OC[C@@]3(O[C@H]2O[C@@H]2COC(C)(C)O[C@@H]12)O[C@H](COC(=O)/C=C/c1ccccc1)[C@@H](OC(=O)/C=C/c1ccccc1)[C@@H]3OC(=O)/C=C/c1ccccc1` [CSE 7], the figures for the inhibition (on yeast α-glucosidase; in experiment [1]) were 46 ± 2% and 13 ± 7%, respectively.
For the molecule `O=C(/C=C/c1ccccc1)OC[C@H]1O[C@@](CO)(O[C@H]2O[C@H](CO)[C@@H](O)[C@H](O)[C@H]2O)[C@@H](OC(=O)/C=C/c2ccccc2)[C@@H]1OC(=O)/C=C/c1ccccc1` [CSE 8], the results for the inhibition (on yeast α-glucosidase; in experiment [1]) were 34 ± 4% and 16 ± 2%, respectively. Also, the “% α-glucosidase inhibition relative to % α-amylase inhibition” value at yeast α-glucosidase (25 μg/mL, selectivity α-glucosidase over α-amylase) is given as “higher inhibition of α-glucosidase than α-amylase”.
`O=C(C=Cc1ccccc1)OCC1OC(CO)(OC2OC(CO)C(O)C(OC(=O)C=Cc3ccccc3)C2O)C(OC(=O)C=Cc2ccccc2)C1OC(=O)C=Cc1ccccc1` (stereo not shown) [CSE 9]: the values for the inhibition (against yeast α-glucosidase; in experiment [1]) were 74 ± 9% and 99 ± 1%, respectively. Further, on yeast α-glucosidase, the “α-glucosidase IC50, fold lower than acarbose” value is “over 36 fold”. Besides, the IC50 at yeast α-glucosidase (mean ± SD, n = 3) was determined as 9 ± 3 µM; in experiment [1] (mean ± SD, n = 3) it was 0.8 ± 0.1 µM. The “α-amylase IC50, fold less than acarbose” value in experiment [1] is listed as “five-fold less”.
Consider `COc1cc(/C=C/C(=O)OC[C@H]2O[C@@](CO)(O[C@H]3O[C@H](CO)[C@@H](O)[C@H](OC(=O)/C=C/c4ccc(O)c(OC)c4)[C@H]3O)[C@@H](OC(=O)/C=C/c3ccc(O)c(OC)c3)[C@@H]2OC(=O)/C=C/c2ccc(O)c(OC)c2)ccc1O` [FSE 1], for which the blood glucose excursion entry in the experiment with STZ-treated mice is recorded as “significantly reduced blood glucose excursion”.
In turn, `C[C@H]1O[C@H](O[C@H]2[C@H](O)[C@@H](O)[C@@H](O[C@H]3[C@H](O)[C@@H](O)C(O)O[C@@H]3CO)O[C@@H]2CO)[C@H](O)[C@@H](O)[C@@H]1N[C@H]1C=C(CO)[C@@H](O)[C@H](O)[C@H]1O` (stereo partly shown) [acarbose, reference compound] gave an inhibition on yeast α-glucosidase of 27 ± 4%. For the same molecule, in experiment [1] (read-out: % α-amylase inhibition), the inhibition at 25 µg/mL is 93 ± 2%.

The record behind these values is article PMC7830900, “Cinnamoyl Sucrose Esters as Alpha Glucosidase Inhibitors for the Treatment of Diabetes” (Molecules, 2021).
